In PubChem BioAssay AID256 (DTP/NCI, 2004):
Where “and” joins values, the source holds several entries; their conditions need not be identical. Identical values can stand only once. Inconclusive results and toxic doses are left out. Rule for the calls: active = survival T/C of 150% or more; inactive = T/C below 125% in these data.

System: CD2F1 mice, L1210 leukemia ip, survival T/C
Test: NCI In Vivo Anticancer Drug Screen. Data for tumor model L1210 Leukemia (intraperitoneal) in CD2F1 (CDF1) mice
Conditions: higher = longer survival
Procedure, shortened: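 Implant tumor; dose compound or vehicle; measure endpoint in both groups; report treated divided by control.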

[1] = endpoint: mean survival time, dose: 3.13 mg/kg/injection, schedule: Q04DX003 (ip), vehicle: distilled water + Tween-80
[2] = endpoint: mean survival time, dose: 6.25 mg/kg/injection, schedule: Q04DX003 (ip), vehicle: distilled water + Tween-80
[3] = endpoint: mean survival time, dose: 12.5 mg/kg/injection, schedule: Q04DX003 (ip), vehicle: distilled water + Tween-80
[4] = endpoint: mean survival time, dose: 25.0 mg/kg/injection, schedule: Q04DX003 (ip), vehicle: distilled water + Tween-80
[5] = endpoint: mean survival time, dose: 50.0 mg/kg/injection, schedule: Q04DX003 (ip), vehicle: distilled water + Tween-80
[6] = endpoint: mean survival time, dose: 100.0 mg/kg/injection, schedule: Q04DX003 (ip), vehicle: distilled water + Tween-80
[7] = endpoint: mean survival time, dose: 200.0 mg/kg/injection, schedule: Q04DX003 (ip), vehicle: distilled water + Tween-80
[8] = endpoint: mean survival time, dose: 100.0 mg/kg/injection, schedule: Q01DX001 (ip), vehicle: saline with Tween-80
[9] = endpoint: mean survival time, dose: 200.0 mg/kg/injection, schedule: Q01DX001 (ip), vehicle: saline with Tween-80
[10] = endpoint: mean survival time, dose: 100.0 mg/kg/injection, schedule: Q04DX003 (ip), vehicle: saline with Tween-80
[11] = endpoint: mean survival time, dose: 200.0 mg/kg/injection, schedule: Q04DX003 (ip), vehicle: saline with Tween-80
[12] = endpoint: mean survival time, dose: 400.0 mg/kg/injection, schedule: Q04DX003 (ip), vehicle: saline with Tween-80
[13] = endpoint: mean survival time, dose: 100.0 mg/kg/injection, schedule: Q01DX001 (ip), vehicle: saline
[14] = endpoint: mean survival time, dose: 200.0 mg/kg/injection, schedule: Q01DX001 (ip), vehicle: saline
[15] = endpoint: mean survival time, dose: 400.0 mg/kg/injection, schedule: Q01DX001 (ip), vehicle: saline
[16] = endpoint: mean survival time, dose: 100.0 mg/kg/injection, schedule: Q04DX003 (ip), vehicle: saline
[17] = endpoint: mean survival time, dose: 400.0 mg/kg/injection, schedule: Q01DX001 (ip), vehicle: saline with Tween-80

Measured: T/C

CCOc1ccc2nc([NH-])sc2c1.CCOc1ccc2nc([NH-])sc2c1.[Cl][Pt+2][Cl]
inactive: [1] 96 % of control | [2] 96 % of control | [3] 96 % of control | [4] 95 % of control | [5] 98 % of control | [6] 101 % of control | [7] 96 % of control

CCOC12c3c4cccc3Oc3cccc(c31)S(=O)(=O)c1cccc(c12)O4
inactive: [8] 89 % of control | [9] 89 % of control

C[Si](C)(C)OC1CC(=O)OC1n1cc(F)c(=O)[nH]c1=O (stereo not drawn)
inactive: endpoint: median survival time, dose: 12.5 mg/kg/injection, schedule: Q01DX005 (ip), vehicle: saline 103 % of control | endpoint: median survival time, dose: 25.0 mg/kg/injection, schedule: Q01DX005 (ip), vehicle: saline 107 % of control | endpoint: median survival time, dose: 50.0 mg/kg/injection, schedule: Q01DX005 (ip), vehicle: saline 113 % of control | endpoint: median survival time, dose: 100.0 mg/kg/injection, schedule: Q01DX005 (ip), vehicle: saline 116 % of control

CCOC(=O)Nc1cc2c(c(N)n1)N=C(c1ccc(-c3ccccc3)cc1)CN2
inactive: endpoint: mean survival time, dose: 0.78 mg/kg/injection, schedule: Q01DX009 (ip), vehicle: Klucel (hydroxypropylcellulose) (HPC) 106 % of control | endpoint: mean survival time, dose: 1.56 mg/kg/injection, schedule: Q01DX009 (ip), vehicle: Klucel (hydroxypropylcellulose) (HPC) 112 % of control | endpoint: mean survival time, dose: 3.12 mg/kg/injection, schedule: Q01DX009 (ip), vehicle: Klucel (hydroxypropylcellulose) (HPC) 114 % of control and 111 % of control | endpoint: mean survival time, dose: 6.25 mg/kg/injection, schedule: Q01DX009 (ip), vehicle: Klucel (hydroxypropylcellulose) (HPC) 109 % of control | endpoint: mean survival time, dose: 12.5 mg/kg/injection, schedule: Q01DX001 (ip), vehicle: Klucel (hydroxypropylcellulose) (HPC) 115 % of control | endpoint: mean survival time, dose: 12.5 mg/kg/injection, schedule: Q01DX009 (ip), vehicle: Klucel (hydroxypropylcellulose) (HPC) 89 % of control | endpoint: mean survival time, dose: 50.0 mg/kg/injection, schedule: Q01DX001 (ip), vehicle: Klucel (hydroxypropylcellulose) (HPC) 121 % of control

CC1(O)CC2CCCC1C2 (stereo not drawn)
inactive: [10] 93 % of control | [11] 90 % of control | [12] 93 % of control

O=[N+]([O-])c1ccc(N/N=C2/C3CCC(C3)C2C(O)(C(F)(F)F)C(F)(F)F)c([N+](=O)[O-])c1 (stereo not drawn)
inactive: endpoint: mean survival time, dose: 50.0 mg/kg/injection, schedule: Q04DX003 (ip), vehicle: saline with Tween-80 94 % of control | [10] 95 % of control | [11] 94 % of control | [12] 103 % of control

CC(=O)c1ccc(O)cc1O
inactive: [13] 102 % of control and 98 % of control | [14] 102 % of control and 98 % of control | [15] 107 % of control and 104 % of control

N#CN=C([S-])[S-].N#CN=C([S-])[S-].[Cu]
inactive: endpoint: mean survival time, dose: 12.5 mg/kg/injection, schedule: Q04DX003 (ip), vehicle: acetone 93 % of control | endpoint: mean survival time, dose: 25.0 mg/kg/injection, schedule: Q04DX003 (ip), vehicle: acetone 94 % of control

NCC(=O)NCC(=O)OCCO
inactive: endpoint: mean survival time, dose: 50.0 mg/kg/injection, schedule: Q01DX009 (ip), vehicle: water 97 % of control | endpoint: mean survival time, dose: 100.0 mg/kg/injection, schedule: Q01DX009 (ip), vehicle: water 93 % of control | endpoint: mean survival time, dose: 200.0 mg/kg/injection, schedule: Q01DX009 (ip), vehicle: water 91 % of control | endpoint: mean survival time, dose: 400.0 mg/kg/injection, schedule: Q01DX009 (ip), vehicle: water 90 % of control

CCOC(=O)Nc1cc(NC(C)CCCN(CC)CC)c2ncc(-c3cc(OC)c(OC)c(OC)c3)nc2n1 (stereo not drawn) (tested in a mixture with another compound)
inactive: endpoint: mean survival time, dose: 50.0 mg/kg/injection, schedule: Q01DX009 (ip), vehicle: saline 89 % of control | endpoint: mean survival time, dose: 100.0 mg/kg/injection, schedule: Q01DX009 (ip), vehicle: saline 89 % of control | endpoint: mean survival time, dose: 200.0 mg/kg/injection, schedule: Q01DX009 (ip), vehicle: saline 89 % of control

[I][Pt+2][I].[NH-]N1CCN([NH-])CC1
inactive: [1] 102 % of control | [2] 100 % of control | [3] 102 % of control | [4] 102 % of control | [5] 104 % of control | [6] 102 % of control | [7] 100 % of control

c1c2c(cc3c1OCO3)CNCC2
inactive: [13] 102 % of control

CN(C)c1ccc(N=Cc2cc[n+](C)cc2)cc1
inactive: endpoint: mean survival time, dose: 25.0 mg/kg/injection, schedule: Q04DX003 (ip), vehicle: saline 98 % of control | endpoint: mean survival time, dose: 50.0 mg/kg/injection, schedule: Q04DX003 (ip), vehicle: saline 102 % of control | [16] 102 % of control

COc1cc(CCN2CC3C(C(=O)O)C4C=CC3(C2)O4)ccc1OCc1ccccc1 (stereo not drawn)
inactive: endpoint: mean survival time, dose: 100.0 mg/kg/injection, schedule: Q04DX002 (ip), vehicle: saline with Tween-80 95 % of control | endpoint: mean survival time, dose: 200.0 mg/kg/injection, schedule: Q04DX002 (ip), vehicle: saline with Tween-80 95 % of control | endpoint: mean survival time, dose: 400.0 mg/kg/injection, schedule: Q04DX002 (ip), vehicle: saline with Tween-80 98 % of control

CCOC(=O)N1Cc2cc3ccc(OC)cc3nc2C1
inactive: [8] 98 % of control | [9] 101 % of control | [17] 103 % of control

O=C1c2ccccc2C(Cl)=C(Cl)C1(Cl)Cl
inactive: endpoint: mean survival time, dose: 12.5 mg/kg/injection, schedule: Q01DX009 (ip), vehicle: saline with Tween-80 92 % of control | endpoint: mean survival time, dose: 25.0 mg/kg/injection, schedule: Q01DX009 (ip), vehicle: saline with Tween-80 101 % of control | endpoint: mean survival time, dose: 50.0 mg/kg/injection, schedule: Q01DX009 (ip), vehicle: saline with Tween-80 101 % of control | [10] 96 % of control | [12] 100 % of control

O=[N+]([O-])c1ccc(C(O)C(O)c2ccccc2)cc1 (stereo not drawn)
inactive: [8] 96 % of control | [9] 92 % of control | [17] 95 % of control

CC1(C)CC(NC(=O)CSc2ncnc3nc[nH]c23)CC(C)(C)N1O
inactive: endpoint: mean survival time, dose: 12.5 mg/kg/injection, schedule: Q01DX005 (ip), vehicle: saline 106 % of control | endpoint: mean survival time, dose: 25.0 mg/kg/injection, schedule: Q01DX005 (ip), vehicle: saline 98 % of control | endpoint: mean survival time, dose: 50.0 mg/kg/injection, schedule: Q01DX005 (ip), vehicle: saline 98 % of control | endpoint: mean survival time, dose: 100.0 mg/kg/injection, schedule: Q01DX005 (ip), vehicle: saline 98 % of control | endpoint: mean survival time, dose: 200.0 mg/kg/injection, schedule: Q01DX005 (ip), vehicle: saline 98 % of control

O=S(=O)(c1ccc(Br)cc1)c1ccc(Br)cc1
inactive: [8] 112 % of control | [9] 102 % of control | [17] 97 % of control

CN=C(N)CS
inactive: endpoint: mean survival time, dose: 25.0 mg/kg/injection, schedule: Q04DX002 (ip), vehicle: saline 101 % of control | endpoint: mean survival time, dose: 50.0 mg/kg/injection, schedule: Q04DX002 (ip), vehicle: saline 101 % of control | endpoint: mean survival time, dose: 100.0 mg/kg/injection, schedule: Q04DX002 (ip), vehicle: saline 101 % of control

COc1ccc(NC(=O)Nc2ccc(C)cc2C)cc1
inactive: endpoint: mean survival time, dose: 100.0 mg/kg/injection, schedule: Q01DX009 (ip), vehicle: saline with Tween-80 86 % of control | endpoint: mean survival time, dose: 200.0 mg/kg/injection, schedule: Q01DX009 (ip), vehicle: saline with Tween-80 88 % of control

O=C1CCC(=O)N1O
inactive: [13] 104 % of control | [16] 100 % of control | [14] 103 % of control | endpoint: mean survival time, dose: 200.0 mg/kg/injection, schedule: Q04DX003 (ip), vehicle: saline 102 % of control | [15] 103 % of control | endpoint: mean survival time, dose: 400.0 mg/kg/injection, schedule: Q04DX003 (ip), vehicle: saline 98 % of control

Cc1ccc(S(=O)(=O)NCCN(CCNS(=O)(=O)c2ccc(C)cc2)S(=O)(=O)c2ccc(C)cc2)cc1
inactive: endpoint: mean survival time, dose: 12.5 mg/kg/injection, schedule: Q01DX009 (ip), vehicle: other 88 % of control | endpoint: mean survival time, dose: 25.0 mg/kg/injection, schedule: Q01DX009 (ip), vehicle: other 86 % of control | endpoint: mean survival time, dose: 50.0 mg/kg/injection, schedule: Q01DX009 (ip), vehicle: other 86 % of control | endpoint: mean survival time, dose: 100.0 mg/kg/injection, schedule: Q01DX009 (ip), vehicle: other 92 % of control | endpoint: mean survival time, dose: 200.0 mg/kg/injection, schedule: Q01DX009 (ip), vehicle: other 105 % of control
